Columns and labels:
Assay in all cases: relative viability (nuclei count vs DMSO), 5 days (fraction); higher = more cells survive
JZL-184 + Foretinib = compound: C1CN(CCC1C(C2=CC3=C(C=C2)OCO3)(C4=CC5=C(C=C4)OCO5)O)C(=O)OC6=CC=C(C=C6)[N+](=O)[O-] [JZL-184] + COc1cc2c(Oc3ccc(NC(=O)C4(C(=O)Nc5ccc(F)cc5)CC4)cc3F)ccnc2cc1OCCCN1CCOCC1 [Foretinib] (partner 0.25 µM)
Summary of the method: (§1)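 Dosing by pin tool came one day after lung cancer cell lines were seeded in 1536-well plates, using either one drug or a fixed anchor-drug dose plus five library-drug doses (not always all listed) in √10 steps. After 5 days, nuclei were counted on 4× images. Relative viability is treated-well nuclei count divided by vehicle-well nuclei count, and values are medians of duplicate plates.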

JZL-184 + Linsitinib = compound: C1CN(CCC1C(C2=CC3=C(C=C2)OCO3)(C4=CC5=C(C=C4)OCO5)O)C(=O)OC6=CC=C(C=C6)[N+](=O)[O-] [JZL-184] + C[C@]1(O)C[C@@H](c2nc(-c3ccc4ccc(-c5ccccc5)nc4c3)c3c(N)nccn32)C1 [Linsitinib] (partner 1 µM)
Summary of the method: as §1

JZL-184 + Phenformin = compound: C1CN(CCC1C(C2=CC3=C(C=C2)OCO3)(C4=CC5=C(C=C4)OCO5)O)C(=O)OC6=CC=C(C=C6)[N+](=O)[O-] [JZL-184] + N=C(N)NC(=N)NCCc1ccccc1 [Phenformin] (partner 250 µM)
Summary of the method: as §1

JZL-184 + Crizotinib = compound: C1CN(CCC1C(C2=CC3=C(C=C2)OCO3)(C4=CC5=C(C=C4)OCO5)O)C(=O)OC6=CC=C(C=C6)[N+](=O)[O-] [JZL-184] + C[C@@H](Oc1cc(-c2cnn(C3CCNCC3)c2)cnc1N)c1c(Cl)ccc(F)c1Cl [Crizotinib] (partner 1 µM)
Summary of the method: as §1

JZL-184 = compound: C1CN(CCC1C(C2=CC3=C(C=C2)OCO3)(C4=CC5=C(C=C4)OCO5)O)C(=O)OC6=CC=C(C=C6)[N+](=O)[O-] [JZL-184]
Summary of the method: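 Hoechst staining, done together with fixation and permeabilisation, marked nuclei for 4× imaging and MetaXpress counting. This followed 5 days without medium change after lung cancer cell lines, kept overnight at 37 °C in 1536-well plates, were pinned with five library-drug doses (not always all listed) spaced by √10 on vehicle-anchored plates. Viability is the ratio of treated-well to vehicle-well nuclei, expressed as a median across plates. Plates passed only at control CV below 25% with at least one doubling.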

Row | Cell Line | relative viability (JZL-184 + Foretinib; first compound 0.04 µM) | relative viability (JZL-184 + Foretinib; first compound 0.4 µM) | relative viability (JZL-184 + Foretinib; first compound 1.265 µM) | relative viability (JZL-184 + Foretinib; first compound 4 µM) | relative viability (JZL-184 + Linsitinib; first compound 0.04 µM) | relative viability (JZL-184 + Linsitinib; first compound 0.4 µM) | relative viability (JZL-184 + Linsitinib; first compound 1.265 µM) | relative viability (JZL-184 + Linsitinib; first compound 4 µM) | relative viability (JZL-184 + Phenformin; first compound 0.04 µM) | relative viability (JZL-184 + Phenformin; first compound 0.4 µM) | relative viability (JZL-184 + Phenformin; first compound 1.265 µM) | relative viability (JZL-184 + Phenformin; first compound 4 µM) | relative viability (JZL-184 + Crizotinib; first compound 0.04 µM) | relative viability (JZL-184 + Crizotinib; first compound 0.4 µM) | relative viability (JZL-184 + Crizotinib; first compound 1.265 µM) | relative viability (JZL-184 + Crizotinib; first compound 4 µM) | relative viability (JZL-184; 0.04 µM) | relative viability (JZL-184; 0.4 µM) | relative viability (JZL-184; 1.265 µM) | relative viability (JZL-184; 4 µM)
1 | NCI-H460 | 1.03 | 0.904 | 0.957 | 1.02 | 1.03 | 0.623 | 0.87 | 0.72 | 0.626 | 0.483 | 0.521 | 0.485 | 0.993 | 0.81 | 0.839 | 0.912 | 1.06 | 0.884 | 0.974 | 0.975
2 | EKVX | 0.677 | 0.752 | 0.925 | 0.755 | 0.987 | 1.01 | 0.948 | 0.937 | 0.236 | 0.243 | 0.244 | 0.238 | 0.934 | 0.972 | 1.02 | 0.741 | 1.02 | 0.979 | 1.04 | 0.927
3 | NCI-H1755 | 0.989 | 0.917 | 0.933 | 0.919 | 0.976 | 1.01 | 1.01 | 0.943 | 0.636 | 0.621 | 0.614 | 0.601 | 0.933 | 0.894 | 0.835 | 0.793 | 1.04 | 0.988 | 0.985 | 0.956
4 | NCI-H2087 | 1.01 | 1.03 | 1.17 | 1.19 | 1.14 | 0.765 | 0.999 | 0.961 | 0.538 | 0.449 | 0.515 | 0.486 | 0.928 | 0.816 | 0.757 | 0.93 | 1.15 | 0.99 | 1.04 | 1.11
5 | H3255 | 0.832 | 0.684 | 0.95 | 0.987 | 1.05 | 0.917 | 1.09 | 0.892 | 0.321 | 0.323 | 0.336 | 0.422 | 1.17 | 0.748 | 0.91 | 0.786 | 1.1 | 0.871 | 1.07 | 0.885
6 | SK-MES-1 | 1.01 | 1.02 | 1.02 | 0.86 | 1.07 | 1.04 | 1.1 | 1.06 | 0.736 | 0.64 | 0.688 | 0.615 | 1.03 | 0.867 | 1.01 | 0.924 | 1.1 | 0.982 | 1.07 | 0.939
7 | NCI-H23 | 0.913 | 1.01 | 1.15 | 1.01 | 0.552 | 0.56 | 0.651 | 0.728 | 0.879 | 0.793 | 0.817 | 0.855 | 0.611 | 0.444 | 0.521 | 0.43 | 1.14 | 0.767 | 1.18 | 0.998
8 | HCC-827 | 1.12 | 0.962 | 1.01 | 0.943 | 0.988 | 0.976 | 0.949 | 0.89 | 0.424 | 0.376 | 0.424 | 0.379 | 0.918 | 0.888 | 0.977 | 0.854 | 1.02 | 0.989 | 1.02 | 1.04
9 | HCC-78 | 0.558 | 0.526 | 0.515 | 0.475 | 0.355 | 0.513 | 0.535 | 0.474 | 0.63 | 0.611 | 0.754 | 0.752 | 0.34 | 0.317 | 0.359 | 0.341 | 0.793 | 0.806 | 1.13 | 1.01
10 | UMC-11 | 1.09 | 0.883 | 1.11 | 1.09 | 1.43 | 0.935 | 1.09 | 0.944 | 0.289 | 0.319 | 0.3 | 0.331 | 0.787 | 0.679 | 0.555 | 0.57 | 1.12 | 0.951 | 1.08 | 0.976
11 | NCI-H1975 | 1.02 | 0.94 | 0.987 | 0.87 | 1.04 | 1.04 | 1.02 | 0.896 | 0.414 | 0.411 | 0.395 | 0.397 | 1.11 | 0.901 | 0.995 | 0.975 | 0.996 | 0.938 | 1.01 | 0.915
12 | NCI-H1563 | 0.937 | 0.888 | 0.897 | 0.959 | 1.24 | 1.31 | 1.21 | 1.09 | 0.694 | 0.636 | 0.681 | 0.64 | 0.931 | 0.903 | 0.868 | 0.88 | 0.943 | 1.05 | 1.02 | 0.934
13 | COR-L23 | 0.978 | 0.881 | 1.01 | 0.902 | 1.15 | 0.926 | 0.92 | 0.837 | 0.552 | 0.401 | 0.438 | 0.429 | 0.704 | 0.725 | 0.723 | 0.636 | 1.2 | 1.06 | 1.03 | 0.971
14 | CAL-12T | 1.22 | 1.07 | 1.07 | 1.2 | 1.06 | 0.775 | 0.828 | 0.75 | 0.751 | 0.26 | 0.626 | 0.539 | 0.993 | 0.607 | 0.621 | 0.497 | 1.23 | 0.856 | 1.13 | 0.949
15 | SW 1573 | 1.06 | 0.791 | 0.94 | 0.829 | 0.856 | 0.833 | 0.781 | 0.814 | 0.446 | 0.296 | 0.373 | 0.283 | 0.904 | 0.724 | 0.883 | 0.759 | 1.15 | 0.926 | 1.08 | 1.02
16 | NCI-H2126 | 1.15 | 1.09 | 1.14 | 1.12 | 0.644 | 0.673 | 0.701 | 0.693 | 0.6 | 0.541 | 0.538 | 0.532 | 1.04 | 1.02 | 1.06 | 1.02 | 0.996 | 0.974 | 1.03 | 0.988

— the supplement of paper PMC10307832
